Results: US5876694A, “Azavesamicols” (priority 1997, dated 1999)

How the values were obtained:
vesamicol receptor [1] = conditions: cited from earlier work
[2] = tested on: cholinergic neurotransmission; experiment: In vivo anticholinergic activity in mice (spasms, respiratory distress, paralysis, death); parameters: key to Pharmacological activity in mice: LD: lethal dose; NR: no visible pharmacological reaction; +: visible anticholinergic effects; S: sluggishness and reduced locomotor activity
Experimental: in vivo anticholinergic activity was evaluated in mice. Blockade of cholinergic neurotransmission (or anticholinergic activity) was manifested in a rapidly developing respiratory distress, spasms and paralysis. At lethal doses these symptoms were followed by death within 10 min. As evident in Table 3, several of the compounds tested were lethal at doses as low as 5 and 10 umol/Kg. […] All of the potent compounds belong to the 1,4 series, an observation consistent with the in vitro data discussed above.
^a Group of mice (n = 2) received selected doses of the compounds by
activity: spasms, respiratory distress, paralysis. At lethal doses, death
generally occurred within 10 min following the injection.

vesamicol receptor [3] = target: T1, vesamicol receptor (Tetronarce californica, UniProt P81721); experiment: Inhibition of [^3 H]vesamicol binding to highly purified synaptic vesicles (electric organ of Torpedo Californica); conditions: for in vitro potency (in words): relative to comparator compounds
T1 sequence (P81721 1-515): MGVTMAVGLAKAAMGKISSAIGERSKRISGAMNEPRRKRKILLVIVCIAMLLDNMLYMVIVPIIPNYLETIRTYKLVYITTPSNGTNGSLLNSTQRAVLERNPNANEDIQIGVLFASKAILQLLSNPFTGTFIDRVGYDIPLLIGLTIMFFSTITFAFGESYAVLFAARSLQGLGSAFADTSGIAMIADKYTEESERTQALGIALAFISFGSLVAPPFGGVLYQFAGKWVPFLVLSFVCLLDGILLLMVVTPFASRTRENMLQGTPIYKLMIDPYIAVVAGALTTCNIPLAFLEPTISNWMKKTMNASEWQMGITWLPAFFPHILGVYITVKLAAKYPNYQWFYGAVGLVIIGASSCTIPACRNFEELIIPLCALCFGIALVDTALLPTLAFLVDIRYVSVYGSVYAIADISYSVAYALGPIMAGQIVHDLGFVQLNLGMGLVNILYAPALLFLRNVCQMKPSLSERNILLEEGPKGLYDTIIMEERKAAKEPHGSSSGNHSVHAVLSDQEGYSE
From the text: vesicles harvested from the electric organ of Torpedo Californica.
^b Data obtained from Bahr and Parsons (1986).
IC50 values are quoted ±1 standard deviation.
^d Obtained from Efange et al. (1991).

[4] = .30 umol/Kg (so in the source) ip
[5] = .60 umol/Kg (so in the source) ip

SMILES: OC(Cc1ccc(Br)cc1)CN1CCC(c2ccccc2)CC1 (racemic) [(dl)-4c]
- increase in potency (vesamicol receptor [1]; 4c relative to 4a): 59 times

SMILES: O[C@H]1CNCC[C@@H]1N1CCC(c2ccccc2)CC1 (relative stereo) [Compound 5, 3-Hydroxy-4-(4-phenylpiperidinyl)piperidine]
- Pharmacological activity in mice [2, 4]: NR

SMILES: O[C@H]1CCNC[C@@H]1N1CCC(c2ccccc2)CC1 (relative stereo) [Compound 6]
- Pharmacological activity in mice [2, 4]: NR

SMILES: O=C(c1ccccc1)N1CC[C@H](N2CCC(c3ccccc3)CC2)[C@@H](O)C1 (relative stereo) [Compound 9a, 1-Benzoyl-3-hydroxy-4-(4-phenylpiperidinyl)piperidine]
- Pharmacological activity in mice [2, 5]: LD

SMILES: O=C(c1ccccc1)N1CC[C@H](O)[C@@H](N2CCC(c3ccccc3)CC2)C1 (relative stereo) [Compound 10a, 1-Benzoyl-4-hydroxy-3-(4-phenylpiperidinyl)piperidine]
- Pharmacological activity in mice [2, 4]: LD

SMILES: O=C(c1ccccc1I)N1CC[C@H](O)[C@@H](N2CCC(c3ccccc3)CC2)C1 (relative stereo) [Compound 10b, 4-Hydroxy-1-(2-iodobenzoyl)-3-(4-phenylpiperidinyl)piperidine]
- Pharmacological activity in mice ([2]; 2.5 umol/Kg ip): NR
- Pharmacological activity in mice ([2]; 20 umol/Kg ip): +

SMILES: O[C@H]1CN(Cc2ccccc2)CC[C@@H]1N1CCC(c2ccccc2)CC1 (relative stereo) [Compound 11a]
- Pharmacological activity in mice ([2]; 10 umol/Kg ip): NR
- Pharmacological activity in mice ([2]; 20 umol/Kg ip): +

SMILES: O[C@H]1CN(Cc2ccccc2Br)CC[C@@H]1N1CCC(c2ccccc2)CC1 (relative stereo) [Compound 11b]
- in vitro potency (in words) (vesamicol receptor [3]): slight but noticeable increase in activity
- Pharmacological activity in mice ([2]; 5.0 umol/Kg ip): NR
- Pharmacological activity in mice ([2]; 10 umol/Kg ip): +

SMILES: O[C@H]1CN(Cc2cccc(Br)c2)CC[C@@H]1N1CCC(c2ccccc2)CC1 (relative stereo) [Compound 11c]
- Pharmacological activity in mice ([2]; 10 umol/Kg ip): NR
- Pharmacological activity in mice ([2]; 20 umol/Kg ip): NR
- Pharmacological activity in mice [2, 5]: NR
- hind leg paralysis in mice ([2]; footnote c, .60 umol/Kg (so in the source) ip): Hind legs remained visibly paralyzed
- duration of visible hind leg paralysis ([2]; postinjection, footnote c, .60 umol/Kg (so in the source) ip): at least 15 min

SMILES: O[C@H]1CN(Cc2ccc(Br)cc2)CC[C@@H]1N1CCC(c2ccccc2)CC1 (relative stereo) [Compound 11d]
- Pharmacological activity in mice ([2]; 10 umol/Kg ip): NR

SMILES: O[C@H]1CCN(Cc2ccccc2)C[C@@H]1N1CCC(c2ccccc2)CC1 (relative stereo) [Compound 12a]
- in vitro potency (in words) (vesamicol receptor [3]): increased potency
- Pharmacological activity in mice ([2]; 10 umol/Kg ip): LD

SMILES: O[C@H]1CCN(Cc2ccc(F)cc2)C[C@@H]1N1CCC(c2ccccc2)CC1 (relative stereo) [Compound 12d]
- in vitro potency (in words) (vesamicol receptor [3]): enhances potency
- Pharmacological activity in mice ([2]; 10 umol/Kg ip): LD

SMILES: O[C@H]1CCN(Cc2ccccc2Br)C[C@@H]1N1CCC(c2ccccc2)CC1 (relative stereo) [Compound 12e]
- Pharmacological activity in mice ([2]; 10 umol/Kg ip): LD

SMILES: O[C@H]1CCN(Cc2cccc(Br)c2)C[C@@H]1N1CCC(c2ccccc2)CC1 (relative stereo) [Compound 12f]
- Pharmacological activity in mice ([2]; 5.0 umol/Kg ip): NR
- Pharmacological activity in mice ([2]; 10 umol/Kg ip): LD

SMILES: O[C@H]1CCN(Cc2ccc(Br)cc2)C[C@@H]1N1CCC(c2ccccc2)CC1 (relative stereo) [Compound 12g, 1-(4-Bromobenzyl)-4-hydroxy-3-(4-phenylpiperidinyl)piperidine]
- Pharmacological activity in mice ([2]; 10 umol/Kg ip): +
- Pharmacological activity in mice ([2]; 20 umol/Kg ip): LD

SMILES: O[C@H]1CCN(Cc2cccc(I)c2)C[C@@H]1N1CCC(c2ccccc2)CC1 (relative stereo) [Compound 12h]
- Pharmacological activity in mice ([2]; 1.3 umol/Kg ip): NR
- Pharmacological activity in mice ([2]; 5.0 umol/Kg ip): LD

SMILES: O=[N+]([O-])c1ccc(N2CC[C@H](O)[C@@H](N3CCC(c4ccccc4)CC3)C2)cc1 (relative stereo) [Compound 12l, 4-Hydroxy-1-(4-nitrophenyl)-3-(4-phenylpiperidinyl)piperidine]
- Pharmacological activity in mice ([2]; .15 umol/Kg (so in the source) ip): NR

SMILES: O=C(c1ccccc1)N1CC[C@H](O)[C@@H](N2CCC(c3ccccc3)CC2)C1 [(+)-10a]
- anticholinergic effects in mice ([2]; 2.5 umol/Kg): elicited anticholinergic effects
- Pharmacological activity in mice ([2]; 2.5 umol/Kg ip): +
- Pharmacological activity in mice ([2]; 5.0 umol/Kg ip): LD
- Pharmacological activity in mice [2, 4]: LD

SMILES: O=C(c1ccccc1)N1CC[C@@H](O)[C@H](N2CCC(c3ccccc3)CC2)C1 [(-)-10a]
- IC50 (vesamicol receptor [3]; inhibition of [^3 H]vesamicol binding, hydrochlorides, ±1 standard deviation): 100 ± 30 nM
- Pharmacological activity in mice ([2]; 5.0 umol/Kg ip): +

SMILES: CC(C)(C)C1CC[C@@H](O)[C@H](N2CCC(c3ccccc3)CC2)C1 (stereo partly shown) [Compound 3]
- vesamicol receptor affinity (in words) (vesamicol receptor [1]; earlier studies): potent ligands
